The values that follow come from patent publication US20200246241A1, “COSMETIC COMPOSITION FOR BLOCKING FINE DUST” (LG HOUSEHOLD & HEALTH CARE LTD., priority 2017, published 2020).

Entries after “also recorded” stand apart in the source; their conditions may differ.

The assay in a line: Estimation of fine dust attachment on PMMA plate coated with artificial sebum. The conditions noted are these: compared to control group or other compounds. The protocol: 1) Method for Estimating Fine Dust Attachment
i) After applying artificial sebum of 1.3 mg/cm^2 on a PMMA plate, it was dried for 15 minutes.
ii) After applying a test formulation on the dried artificial sebum in the same amount, it was dried for 15 minutes (Noting was applied on the control group).
iii) The PMMA plate was attached on the internal top of the self-made chamber, and a pan on the bottom of the chamber was operated for 5 minutes, to expose 0.5 g substitutive fine dusts (brand name LM-YG0510, comprising strontium carbonate, alumina, europium oxide, and dysprosium oxide).
iv) Using a magnifying glass (Aphrodite-3, 50×), UV images were photographed (measuring 4 points per plate).
v) Using ImagePro Plus, the area of dust attachment was measured.
vi) The fine dust attachment rate was calculated by comparing the sample with the result of 3 times of experiments (Setting the fine dust attachment rate of the control group to 100).
In the case of `CC(C)(C)CC(C)(C)c1cc(Cc2cc(C(C)(C)CC(C)(C)C)cc(-n3nc4ccccc4n3)c2O)c(O)c(-n2nc3ccccc3n2)c1` [Methylene Bis-Benzotriazolyl tetramethyl butylphenol], the “effect of preventing fine dust attachment (in words)” value (shortened to “effect”) was “excellent effect of preventing fine dust attachment; also recorded: excellent effect of reducing fine dust attachment”.

`Nc1nc(N)nc(N)n1` [melamine, 1,3,5-triazine-2,4,6-triamine]: the “effect” value was “excellent effect of preventing fine dust attachment”.

Turning to `CCCCC(CC)COC(=O)c1ccc(Nc2nc(Nc3ccc(C(=O)OCC(CC)CCCC)cc3)nc(Nc3ccc(C(=O)OCC(CC)CCCC)cc3)n2)cc1` (stereo not drawn) [ethylhexyl triazone], the “effect” value was “excellent effect of preventing fine dust attachment; also recorded: excellent effect of reducing fine dust attachment”.

With `O=S(=O)([O-])c1cc(S(=O)(=O)O)cc2[nH]c(-c3ccc(-c4nc5c(S(=O)(=O)[O-])cc(S(=O)(=O)O)cc5[nH]4)cc3)nc12.[Na+].[Na+]` [disodium phenyl dibenzimidazole tetrasulfonate], the “effect” value is on record as “excellent effect of preventing fine dust attachment; also recorded: excellent effect of reducing fine dust attachment”.

As to `CCCCC(CC)COC(=O)c1ccc(Nc2nc(Nc3ccc(C(=O)NC(C)(C)C)cc3)nc(Nc3ccc(C(=O)OCC(CC)CCCC)cc3)n2)cc1` (stereo not drawn) [Diethylhexyl butamido triazone], the “effect” value was “excellent effect of preventing fine dust attachment; also recorded: excellent effect of reducing fine dust attachment”.

Take trisbiphenyl triazine: the “effect” value is recorded as “excellent effect of preventing fine dust attachment; also recorded: excellent effect of reducing fine dust attachment”.
